Test results from the supplement of paper PMC11061612.

Assays:
[1] = test system: COLO-679 (Melanoma); assay: Bliss excess, mean over the matrix (fraction); higher = more synergy
Outline: (§1)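 After 24 hours at 37°C and 5% CO2 in 1536-well plates, cells in DMEM/F12 or RPMI plus 10% FBS received two-drug dose matrices for 72 hours. Viability came from CellTiter-Glo 2.0 luminescence and was scaled as inhibition, anchored at 0 by vehicle wells and at 1 by blank wells. Combination Emax is taken as the second-highest inhibition in the matrix, and Bliss excess as the observed combination effect less EA + EB − EA·EB, with EA and EB the single-agent effects.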

[2] = test system: Ca-Ski (Cervical Carcinoma); assay: as above
Outline: as §1

[3] = test system: HAL-01 (B-Lymphoblastic Leukemia); assay: as above
Outline: as §1

[4] = test system: MV-4-11 (Acute Myeloid Leukemia); assay: as above
Outline: as §1

[5] = test system: SK-N-AS (Neuroblastoma); assay: as above
Outline: as §1

[6] = test system: A4-Fuk (B-Lymphoblastic Leukemia); assay: combination Emax (second highest fraction inhibited in the dose matrix, 72 h); higher = more inhibition; extreme values may be limits of the assay
Outline: as §1

[7] = test system: COLO-668 (Small Cell Lung Carcinoma); assay: as above
Outline: as §1

[8] = test system: EFO-21 (Ovarian Carcinoma); assay: as above
Outline: as §1

[9] = test system: HAL-01 (B-Lymphoblastic Leukemia); assay: as above
Outline: as §1

[10] = test system: KGN (Other Solid Carcinomas); assay: as above
Outline: as §1

[11] = test system: KMRC-1 (Kidney Carcinoma); assay: as above
Outline: as §1

[12] = test system: MV-4-11 (Acute Myeloid Leukemia); assay: as above
Outline: as §1

[13] = test system: Mo-T (Other Blood Carcinomas); assay: as above
Outline: as §1

[14] = test system: NCI-H1993 (Lung Adenocarcinoma); assay: as above
Outline: as §1

[15] = test system: NCI-H522 (Lung Adenocarcinoma); assay: as above
Outline: as §1

[16] = test system: OE33 (Esophageal Adenocarcinoma); assay: as above
Outline: as §1

[17] = test system: SK-N-AS (Neuroblastoma); assay: as above
Outline: as §1

[18] = test system: SKN (Other Solid Carcinomas); assay: as above
Outline: as §1

[19] = test system: SNU-387 (Hepatocellular Carcinoma); assay: as above
Outline: as §1

[20] = test system: SW982 (Other Solid Carcinomas); assay: as above
Outline: as §1
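Wherever Bliss excess, mean over the matrix is given: after 72 h of two-drug dosing.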

| SMILES | Bliss excess [1] | Bliss excess [2] | Bliss excess [3] | Bliss excess [4] | Bliss excess [5] | combination Emax [6] | combination Emax [7] | combination Emax [8] | combination Emax [9] | combination Emax [10] | combination Emax [11] | combination Emax [12] | combination Emax [13] | combination Emax [14] | combination Emax [15] | combination Emax [16] | combination Emax [17] | combination Emax [18] | combination Emax [19] | combination Emax [20] |
| --- | --- | --- | --- | --- | --- | --- | --- | --- | --- | --- | --- | --- | --- | --- | --- | --- | --- | --- | --- | --- |
| CN(CCO)CC[C@H](CSc1ccccc1)Nc1ccc(S(=O)(=O)NC(=O)c2ccc(N3CCC([C@@H](O)c4ccccc4-c4ccc(Cl)cc4)CC3)cc2)cc1S(=O)(=O)C(F)(F)F [AZD4320] + CCN(CCO)CCCOc1ccc2c(Nc3cc(CC(=O)Nc4cccc(F)c4)[nH]n3)ncnc2c1 [AZD2811] (first compound max 1 µM, 7x7, partner max 1 µM) | 0.0201 | 0.119 | -0.0085 | 0.0064 | -0.0041 | 0.417 | 0.915 | 0.196 | 0.835 | 0.497 | 0.144 | 1 | 0.768 | 0.704 | 0.105 | 0.0773 | 0.391 | 0.613 | 0.227 | 0.814 |
| Cc1cc2ncnn2cc1Nc1ncc2c(n1)n(C1CCOCC1)c(=O)n2C [AZD7648] + O=C(c1cc(Cc2n[nH]c(=O)c3ccccc23)ccc1F)N1CCN(C(=O)C2CC2)CC1 [Olaparib] (first compound max 10 µM, 7x7, partner max 10 µM) | -0.039 | -0.0467 | 0.0522 | -0.0389 | -0.0337 | 0.428 | 0.144 | 0.264 | 0.472 | 0.601 | 0.184 | 0.446 | 0.382 | 0.331 | 0.17 | 0.218 | 0.102 | 0.131 | 0.259 | 0.503 |
| CN(CCO)CC[C@H](CSc1ccccc1)Nc1ccc(S(=O)(=O)NC(=O)c2ccc(N3CCC([C@@H](O)c4ccccc4-c4ccc(Cl)cc4)CC3)cc2)cc1S(=O)(=O)C(F)(F)F [AZD4320] + Cn1cnc2c(F)c(Nc3ccc(Br)cc3Cl)c(C(=O)NOCCO)cc21 [Selumetinib] (first compound max 1 µM, 7x7, partner max 3 µM) | 0.0716 | 0.0763 | -0.0053 | 0.0513 | -0.0204 | 0.456 | 0.989 | 0.322 | 0.916 | 0.34 | 0.253 | 1 | 0.996 | 0.935 | 0.301 | 0.214 | 0.776 | 0.454 | 0.445 | 0.844 |
| CN(CCO)CC[C@H](CSc1ccccc1)Nc1ccc(S(=O)(=O)NC(=O)c2ccc(N3CCC([C@@H](O)c4ccccc4-c4ccc(Cl)cc4)CC3)cc2)cc1S(=O)(=O)C(F)(F)F [AZD4320] + Cc1cc2ncnn2cc1Nc1ncc2c(n1)n(C1CCOCC1)c(=O)n2C [AZD7648] (first compound max 1 µM, 7x7, partner max 10 µM) | -0.0351 | -0.0243 | 0.0071 | -0.0133 | -0.0399 | 0.619 | 0.867 | 0.224 | 0.882 | 0.437 | 0.222 | 1 | 0.578 | 0.785 | 0.0447 | 0.222 | 0.182 | 0.15 | 0.178 | 0.371 |
| Cc1cc2ncnn2cc1Nc1ncc2c(n1)n(C1CCOCC1)c(=O)n2C [AZD7648] + COc1cc([C@@H]2c3cc4c(cc3[C@@H](O[C@@H]3O[C@@H]5CO[C@@H](C)O[C@H]5[C@H](O)[C@H]3O)[C@H]3COC(=O)[C@H]23)OCO4)cc(OC)c1O [Etoposide] (first compound max 10 µM, 7x7, partner max 10 µM) | -0.0745 | 0.103 | 0.0962 | 0.115 | 0.0684 | 0.937 | 0.862 | 0.438 | 1 | 0.863 | 0.478 | 1 | 0.909 | 0.79 | 0.339 | 0.504 | 0.472 | 0.784 | 0.22 | 0.861 |
| Cc1cc2ncnn2cc1Nc1ncc2c(n1)n(C1CCOCC1)c(=O)n2C [AZD7648] + C[C@@H]1COCCN1C2=NC(=NC(=C2)C3(CC3)[S@](=N)(=O)C)C4=C5C=CNC5=NC=C4 [AZD6738] (first compound max 10 µM, 7x7, partner max 10 µM) | -0.0486 | 0.0404 | -0.0048 | -0.0469 | 0.0381 | 0.765 | 0.579 | 0.488 | 0.984 | 0.873 | 0.518 | 0.983 | 0.569 | 0.665 | 0.193 | 0.784 | 0.938 | 0.47 | 0.388 | 0.73 |
| CN(CCO)CC[C@H](CSc1ccccc1)Nc1ccc(S(=O)(=O)NC(=O)c2ccc(N3CCC([C@@H](O)c4ccccc4-c4ccc(Cl)cc4)CC3)cc2)cc1S(=O)(=O)C(F)(F)F [AZD4320] + Nc1ccn([C@@H]2O[C@H](CO)[C@@H](O)C2(F)F)c(=O)n1 [Gemcitabine] (first compound max 1 µM, 7x7, partner max 0.3 µM) | -0.0226 | 0.0469 | 0.0448 | -0.023 | 0.0011 | 0.914 | 0.966 | 0.473 | 1 |  | 0.902 | 1 | 0.997 | 0.937 | 0.224 | 0.586 | 0.672 | 0.783 | 0.218 | 1 |
| C[C@@H](c1ccc2nccn2c1)n1nnc2ncc(-c3cnn(C)c3)nc21 [Savolitinib] + Cc1c2c(nn1C)CSCc1cc(n(C)n1)CSc1cc(c3ccccc3c1)OCCCc1c(C(=O)O)n(C)c3c-2c(Cl)ccc13 [AZD5991] (first compound max 1 µM, 7x7, partner max 1 µM) | -0.0398 | -0.0287 | 0.0173 | -0.034 | -0.0749 | 1 | 0.257 | 0.163 | 0.291 | 0.303 | 0.209 | 1 | 0.129 | 0.789 | 0.281 | 0.328 | 0.314 | 0.219 | 0.342 | 0.119 |
| N#Cc1cnc(Nc2cc(NC[C@H]3CNCCO3)c(C(F)(F)F)cn2)cn1 [SRA737] + O=c1[nH]cc(F)c(=O)[nH]1 [5-Fluorouracil] (first compound max 10 µM, 7x7, partner max 20 µM) | -0.148 | 0.0604 | -0.0463 | 0.004 | -0.0291 | 0.905 | 0.483 | 0.313 | 1 | 0.572 | 0.543 | 0.967 | 0.544 | 0.76 | 0.0376 | 0.721 | 0.565 | 0.361 | 0.364 | 0.679 |
| Cc1cc2ncnn2cc1Nc1ncc2c(n1)n(C1CCOCC1)c(=O)n2C [AZD7648] + CCN(CCO)CCCOc1ccc2c(Nc3cc(CC(=O)Nc4cccc(F)c4)[nH]n3)ncnc2c1 [AZD2811] (first compound max 10 µM, 7x7, partner max 1 µM) | -0.0126 | 0.0387 | 0.0199 | -0.0538 | -0.0011 | 0.699 | 0.158 | 0.297 | 0.342 | 0.722 | 0.267 | 0.945 | 0.37 | 0.573 | 0.213 | 0.245 | 0.46 | 0.282 | 0.254 | 0.621 |
| CN(CCO)CC[C@H](CSc1ccccc1)Nc1ccc(S(=O)(=O)NC(=O)c2ccc(N3CCC([C@@H](O)c4ccccc4-c4ccc(Cl)cc4)CC3)cc2)cc1S(=O)(=O)C(F)(F)F [AZD4320] + C1CN(CCC1(C(=O)N[C@@H](CCO)C2=CC=C(C=C2)Cl)N)C3=NC=NC4=C3C=CN4 [Capivasertib] (first compound max 1 µM, 7x7, partner max 3 µM) | -0.0431 | 0.0249 | 0.0022 | 0.0185 | -0.0397 | 0.683 |  | 0.168 | 0.761 | 0.323 | 0.51 | 1 | 0.697 | 0.791 | 0.049 | 0.0577 | 0.172 | 0.401 | 0.213 | 0.278 |
| CN(CCO)CC[C@H](CSc1ccccc1)Nc1ccc(S(=O)(=O)NC(=O)c2ccc(N3CCC([C@@H](O)c4ccccc4-c4ccc(Cl)cc4)CC3)cc2)cc1S(=O)(=O)C(F)(F)F [AZD4320] + C[C@@H]1COCCN1C2=NC(=NC(=C2)C3(CC3)[S@](=N)(=O)C)C4=C5C=CNC5=NC=C4 [AZD6738] (first compound max 1 µM, 7x7, partner max 10 µM) | -0.0266 | -0.006 | 0.0405 | -0.0066 | -0.0421 | 0.715 | 0.983 | 0.433 | 1 | 0.874 | 0.656 | 1 | 0.937 | 0.766 | 0.156 | 0.843 | 0.949 | 0.663 | 0.541 | 0.886 |
| Cc1c2c(nn1C)CSCc1cc(n(C)n1)CSc1cc(c3ccccc3c1)OCCCc1c(C(=O)O)n(C)c3c-2c(Cl)ccc13 [AZD5991] + Cn1cnc2c(F)c(Nc3ccc(Br)cc3Cl)c(C(=O)NOCCO)cc21 [Selumetinib] (first compound max 1 µM, 7x7, partner max 3 µM) | -0.0191 | 0.0502 | 0.062 | 0.0172 | -0.0277 | 1 | 0.666 | 0.36 | 0.624 | 0.299 | 0.197 | 1 | 0.296 | 0.511 | 0.409 | 0.19 | 0.876 |  | 0.619 | 0.377 |
